Source: ChEMBL document CHEMBL4402530, “New dimensions in the field of antimalarial research against malaria resurgence” (Eur J Med Chem, 2019)

What was measured:
[1] = tested on: Plasmodium falciparum; assay: Antiparasitic activity against Plasmodium falciparum W2; type: functional, organism-based
[2] = tested on: Plasmodium falciparum; assay: Antiparasitic activity against Plasmodium falciparum 3D7; type: functional, organism-based
[3] = tested on: Plasmodium berghei; assay: Antiparasitic activity against Plasmodium berghei ANKA infected in CD1 mouse assessed as reduction in parasitemia; type: functional
[4] = tested on: Plasmodium falciparum; assay: Antiparasitic activity against Plasmodium falciparum […]; type: functional, organism-based
[5] = tested on: Plasmodium falciparum; assay: Antiparasitic activity against Plasmodium falciparum TM91C235; type: functional, organism-based
[6] = tested on: Plasmodium falciparum; assay: Antiparasitic activity against Plasmodium falciparum D6; type: functional, organism-based
[7] = tested on: Plasmodium falciparum; assay: Antiparasitic activity against chloroquine-resistant Plasmodium falciparum Dd2; type: functional, organism-based
[8] = tested on: Plasmodium falciparum; assay: Antiparasitic activity against Plasmodium falciparum Dd2; type: functional, organism-based
[9] = tested on: Plasmodium falciparum; assay: Antiparasitic activity against Plasmodium falciparum Tm90; type: functional, organism-based
[10] = tested on: Plasmodium falciparum; assay: Antiparasitic activity against Plasmodium falciparum C2B; type: functional, organism-based
[11] = Selectivity index, ratio of IC50 for African green Monkey BGM cells to IC50 for chloroquine-resistant Plasmodium falciparum W2; type: toxicity; details: read-out: Selectivity Index
[12] = tested on: Plasmodium falciparum; assay: Antiparasitic activity against Plasmodium falciparum K1; type: functional, organism-based
[13] = tested on: Plasmodium falciparum; assay: Antiparasitic activity against Plasmodium falciparum D10; type: functional, organism-based
[14] = tested on: Plasmodium falciparum; assay: Antiparasitic activity against Plasmodium falciparum infected in human PBMC; type: functional, organism-based
[15] = tested on: Plasmodium falciparum; assay: Antiparasitic activity against Plasmodium falciparum infected in human HepG2 cells; type: functional, organism-based
[16] = tested on: Plasmodium falciparum; assay: Antiparasitic activity against Plasmodium falciparum infected in mouse; type: functional
[17] = tested on: Plasmodium berghei; assay: Antiparasitic activity against Plasmodium berghei ANKA infected in mouse assessed as mouse survival; type: functional
[18] = tested on: Plasmodium falciparum; assay: Antiparasitic activity against Plasmodium falciparum; type: functional, organism-based
[19] = tested on: Plasmodium falciparum; assay: Antiparasitic activity against Plasmodium falciparum infected in SCID mouse; type: functional

Q: Which IC50 [1] does the source give for `CC(C)=CC(=O)O[C@@H]1C[C@@]2(C)[C@@H](C=C1C)O[C@@H]1[C@H](O)[C@@H](O)[C@@]2(C)[C@]12CO2` here?
A: 370 nM

Q: And the IC50 [2]?
A: 29 nM

Q: With `CC(C)(C)NCc1cc(Nc2ccnc3cc(Cl)ccc23)ccc1F` as the compound, how does the ED50 [3] read?
A: 5.3 mg/kg

Q: Which results are given for `CC(=O)O[C@H]1C[C@H]2[C@@H]([C@H](OC(C)=O)C[C@@H]3C[C@H](N(C)C)CC[C@@]32C)[C@@H]2CC[C@H]([C@H](C)CCCN(C)CCNc3ccnc4cc(Cl)ccc34)[C@@]12C`?
A: IC50 [4]: 2270 nM; IC50 [5]: 3.32 nM; IC50 [6]: 2.63 nM

Q: Which results are given for `NS(=O)(=O)c1cccc(-n2cc(CCCNc3ccnc4cc(Cl)ccc34)nn2)c1`?
A: IC50 ([2]; Plasmodium falciparum, 3D7): 600 nM; IC50 [7]: 600 nM

Q: With `O[C@@H](c1cc(C(F)(F)F)nc2c(C(F)(F)F)cccc12)[C@H]1CCCCN1` [(S,R)-MEFLOQUINE] as the compound, how does the IC50 [6] read?
A: 15.2 nM

Q: Which IC50 [8] does the source give for `CCCCCCCc1c(C)nc2cc(F)cc(F)c2c1OC(=O)OCCOCCOCCOCCOC` here?
A: 0.4 nM

Q: What about the IC50 [9] of the same compound?
A: 81 nM

Q: And the IC50 [6]?
A: 0.05 nM

Q: What about the IC50 [10] of the same compound?
A: 146 nM

Q: Which results are given for `CC(=O)O[C@H]1C[C@H]2[C@@H]([C@H](OC(C)=O)C[C@@H]3CC(=O)CC[C@@]32C)[C@@H]2CC[C@H]([C@H](C)CCCNCCNc3ccnc4cc(Cl)ccc34)[C@@]12C`?
A: IC50 ([1]; Plasmodium falciparum, W2): 2.63 to 13.8 nM; IC50 [6]: 1.35 to 14.1 nM

Q: With `O=Cc1cn(-c2ccnc3cc(Cl)ccc23)nn1` as the compound, how does the selectivity ratio [11] read?
A: 351

Q: For `CC(=O)O[C@H]1C[C@H]2[C@@H]([C@H](OC(C)=O)C[C@@H]3C[C@H](NC(=O)OC(C)(C)C)CC[C@@]32C)[C@@H]2CC[C@H]([C@H](C)CCCN(C)CCNc3ccnc4cc(Cl)ccc34)[C@@]12C`, which IC50 ([1]; Plasmodium falciparum, W2) is on record?
A: 2.63 to 13.8 nM

Q: With `CC(=O)O[C@H]1C[C@H]2[C@@H]([C@H](OC(C)=O)C[C@@H]3CC(=O)CC[C@@]32C)[C@@H]2CC[C@H]([C@H](C)CCCNCCCNc3ccnc4cc(Cl)ccc34)[C@@]12C` as the compound, how does the IC50 ([1]; Plasmodium falciparum, W2) read?
A: 2.63 to 13.8 nM

Q: What about the IC50 [6] of the same compound?
A: 1.35 to 14.1 nM

Q: For `CC(=O)O[C@H]1C[C@H]2[C@@H]([C@H](OC(C)=O)C[C@@H]3C[C@H](NC(=O)OC(C)(C)C)CC[C@@]32C)[C@@H]2CC[C@H]([C@H](C)CCCNCCNc3ccnc4cc(Cl)ccc34)[C@@]12C`, which IC50 [6] is on record?
A: 1.35 to 14.1 nM

Q: Which IC50 ([1]; Plasmodium falciparum, W2) does the source give for `CC(=O)O[C@H]1C[C@H]2[C@@H]([C@H](OC(C)=O)C[C@@H]3C[C@H](NS(C)(=O)=O)CC[C@@]32C)[C@@H]2CC[C@H]([C@H](C)CCCN(C)CCNc3ccnc4cc(Cl)ccc34)[C@@]12C` here?
A: 2.63 to 13.8 nM

Q: What about the IC50 [6] of the same compound?
A: 1.35 to 14.1 nM

Q: With `NS(=O)(=O)c1cccc(-n2cc(CNc3ccnc4cc(Cl)ccc34)nn2)c1` as the compound, how does the IC50 ([2]; Plasmodium falciparum, 3D7) read?
A: 600 nM

Q: And the IC50 [7]?
A: 600 nM

Q: Which results are given for `CC(=O)O[C@H]1C[C@H]2[C@@H]([C@H](OC(C)=O)C[C@@H]3C[C@H](O)CC[C@@]32C)[C@@H]2CC[C@H]([C@H](C)CCCNCCNc3ccnc4cc(Cl)ccc34)[C@@]12C`?
A: IC50 ([1]; Plasmodium falciparum, W2): 2.63 to 13.8 nM; IC50 [6]: 1.35 to 14.1 nM

Q: For `CC(C)c1cc2c(cc1O)[C@@]1(C)CCCC(C)(C)[C@@H]1CC2` [FERRUGINOL], which IC50 ([1]; Plasmodium falciparum, W2) is on record?
A: 0.9 to 4.2 µg/mL

Q: What about the IC50 [6] of the same compound?
A: 0.9 to 4.2 µg/mL

Q: What about the IC50 [12] of the same compound?
A: 0.9 to 4.2 µg/mL

Q: And the IC50 [13]?
A: 0.9 to 4.2 µg/mL

Q: With `CC(=O)O[C@H]1C[C@H]2[C@@H]([C@H](OC(C)=O)C[C@@H]3C[C@H](N)CC[C@@]32C)[C@@H]2CC[C@H]([C@H](C)CCCN(C)CCNc3ccnc4cc(Cl)ccc34)[C@@]12C` as the compound, how does the IC50 ([1]; Plasmodium falciparum, W2) read?
A: 3.74 nM

Q: What about the IC50 [4] of the same compound?
A: 1140 nM

Q: What about the IC50 [5] of the same compound?
A: 9.2 nM

Q: What about the IC50 [6] of the same compound?
A: 4.46 nM

Q: And the IC50 [14]?
A: > 1000 nM

Q: What about the IC50 [15] of the same compound?
A: > 1000 nM

Q: For `COc1cc(NC(C)CCCNCc2ccc(CO[C@H]3O[C@@H]4O[C@@]5(C)CC[C@H]6[C@H](C)CC[C@@H]([C@H]3C)[C@@]46OO5)cc2)c2ncccc2c1` (stereo partly drawn), which IC50 ([1]; Plasmodium falciparum, W2) is on record?
A: 112 nM

Q: With `C[C@H]1Cc2c([nH]c3cc(Cl)c(F)cc23)[C@@]2(N1)C(=O)Nc1ccc(Cl)cc12` [CIPARGAMIN] as the compound, how does the ED50 [16] read?
A: 1 mg/kg

Q: And the ED90 [16]?
A: 3 mg/kg

Q: What about the ED99 [16] of the same compound?
A: 5 mg/kg

Q: For `NS(=O)(=O)c1cccc(-n2cc(CCNc3ccnc4cc(Cl)ccc34)nn2)c1`, which IC50 ([2]; Plasmodium falciparum, 3D7) is on record?
A: 600 nM

Q: What about the IC50 [7] of the same compound?
A: 600 nM

Q: What does the source list for `OC(CN1CCC2(CC1)CC(O)c1ccc3ccccc3c1O2)c1ccc(F)c(F)c1` (stereo not drawn)?
A: Survival [17]: >1.7 days; EC50 [7]: 350 nM

Q: For `NS(=O)(=O)c1ccc(-n2cc(CCCNc3ccnc4cc(Cl)ccc34)nn2)cc1`, which IC50 ([2]; Plasmodium falciparum, 3D7) is on record?
A: 600 nM

Q: What about the IC50 [7] of the same compound?
A: 600 nM

Q: With `CC(C)(C)c1ccc(/C=N/NC(=O)C(=O)Nc2ccc(Nc3ccnc4cc(Cl)ccc34)cc2)cc1` as the compound, how does the IC50 ([2]; Plasmodium falciparum, 3D7) read?
A: 19.7 nM

Q: And the IC50 [12]?
A: 52 nM

Q: What does the source list for `CC(CCNc1ccnc2cc(Cl)ccc12)NCCO[C@H]1O[C@@H]2O[C@@]3(C)CC[C@H]4[C@H](C)CC[C@@H]([C@H]1C)[C@@]24OO3` (stereo partly drawn)?
A: IC50 [8]: 12.2 nM; IC50 [13]: 17.1 nM

Q: For `O=C(N/N=C/c1ccc(Br)cc1)C(=O)Nc1ccc(Nc2ccnc3cc(Cl)ccc23)cc1`, which IC50 ([2]; Plasmodium falciparum, 3D7) is on record?
A: 19.7 nM

Q: What about the IC50 [12] of the same compound?
A: 52 nM

Q: With `COc1cc2[nH]c(C)c(-c3ccc(Oc4ccc(OC(F)(F)F)cc4)cc3F)c(=O)c2cc1Cl` as the compound, how does the EC50 [6] read?
A: 3.18 to 32.3 nM

Q: And the EC50 [14]?
A: 3.18 to 32.3 nM

Q: And the EC50 ([2]; Plasmodium falciparum, 3D7)?
A: 3.18 to 32.3 nM

Q: And the ED50 [16]?
A: 0.3 mg/kg

Q: And the EC50 [18]?
A: 1.06 nM

Q: Which IC50 ([1]; Plasmodium falciparum, W2) does the source give for `CC(=O)O[C@@H]1CC[C@@]2(C)[C@@H](C1)C[C@@H](OC(C)=O)[C@@H]1[C@@H]2C[C@H](OC(C)=O)[C@]2(C)[C@@H]([C@H](C)CCCNCCCNc3ccnc4cc(Cl)ccc34)CC[C@@H]12` here?
A: 2.63 to 13.8 nM

Q: Which results are given for `NS(=O)(=O)c1ccc(-n2cc(CNc3ccnc4cc(Cl)ccc34)nn2)cc1`?
A: IC50 ([2]; Plasmodium falciparum, 3D7): 600 nM; IC50 [7]: 600 nM

Q: Which IC50 ([1]; Plasmodium falciparum, W2) does the source give for `CC(=O)O[C@@H]1CC[C@@]2(C)[C@@H](C1)C[C@@H](OC(C)=O)[C@@H]1[C@@H]2C[C@H](OC(C)=O)[C@]2(C)[C@@H]([C@H](C)CCCN(C)CCCNc3ccnc4cc(Cl)ccc34)CC[C@@H]12` here?
A: 2.63 to 13.8 nM

Q: Which ED50 [19] does the source give for `COc1cc2[nH]c(C)c(-c3ccc(Oc4ccc(OC(F)(F)F)cc4)cc3)c(=O)c2cc1Cl` here?
A: 6 mg/kg

Q: What about the EC50 [6] of the same compound?
A: 1.3 to 13.6 nM

Q: And the EC50 [14]?
A: 1.3 to 13.6 nM

Q: What about the EC50 ([2]; Plasmodium falciparum, 3D7) of the same compound?
A: 1.3 to 13.6 nM

Q: And the ED50 [16]?
A: 0.016 mg/kg

Q: And the EC50 [18]?
A: 0.58 nM

Q: What does the source list for `Cc1[nH]c2cc(F)cc(F)c2c(=O)c1CCCCCCCl`?
A: IC50 [8]: 0.4 nM; IC50 [9]: 81 nM; IC50 [6]: 0.05 nM; IC50 [10]: 146 nM

Q: For `NS(=O)(=O)c1ccc(-n2cc(CCNc3ccnc4cc(Cl)ccc34)nn2)cc1`, which IC50 ([2]; Plasmodium falciparum, 3D7) is on record?
A: 600 nM

Q: And the IC50 [7]?
A: 600 nM
